From patent publication US7727980B2, “Tricyclic androgen receptor modulator compounds and methods” (priority 2001, dated 2010)
Like-named read-outs stand apart in the source and are kept apart here.

Columns and labels:
human AR [1] = target: T1, human AR (Homo sapiens, UniProt P10275); assay: Co-transfection assay, AR agonist activity, CV-1 cells; type: cell-based; design: expressed in transfected cells; host or cells: CV-1 cells (African green monkey kidney fibroblasts), transient transfection with pRShAR; details: for AR Agonist CV-1 Cells Efficacy (%): percent maximal response relative to reference agonist DHT; for EC50: AR Agonist CV-1 Cells Potency (nM), agonist potency or EC50
T1 sequence (P10275 1-920): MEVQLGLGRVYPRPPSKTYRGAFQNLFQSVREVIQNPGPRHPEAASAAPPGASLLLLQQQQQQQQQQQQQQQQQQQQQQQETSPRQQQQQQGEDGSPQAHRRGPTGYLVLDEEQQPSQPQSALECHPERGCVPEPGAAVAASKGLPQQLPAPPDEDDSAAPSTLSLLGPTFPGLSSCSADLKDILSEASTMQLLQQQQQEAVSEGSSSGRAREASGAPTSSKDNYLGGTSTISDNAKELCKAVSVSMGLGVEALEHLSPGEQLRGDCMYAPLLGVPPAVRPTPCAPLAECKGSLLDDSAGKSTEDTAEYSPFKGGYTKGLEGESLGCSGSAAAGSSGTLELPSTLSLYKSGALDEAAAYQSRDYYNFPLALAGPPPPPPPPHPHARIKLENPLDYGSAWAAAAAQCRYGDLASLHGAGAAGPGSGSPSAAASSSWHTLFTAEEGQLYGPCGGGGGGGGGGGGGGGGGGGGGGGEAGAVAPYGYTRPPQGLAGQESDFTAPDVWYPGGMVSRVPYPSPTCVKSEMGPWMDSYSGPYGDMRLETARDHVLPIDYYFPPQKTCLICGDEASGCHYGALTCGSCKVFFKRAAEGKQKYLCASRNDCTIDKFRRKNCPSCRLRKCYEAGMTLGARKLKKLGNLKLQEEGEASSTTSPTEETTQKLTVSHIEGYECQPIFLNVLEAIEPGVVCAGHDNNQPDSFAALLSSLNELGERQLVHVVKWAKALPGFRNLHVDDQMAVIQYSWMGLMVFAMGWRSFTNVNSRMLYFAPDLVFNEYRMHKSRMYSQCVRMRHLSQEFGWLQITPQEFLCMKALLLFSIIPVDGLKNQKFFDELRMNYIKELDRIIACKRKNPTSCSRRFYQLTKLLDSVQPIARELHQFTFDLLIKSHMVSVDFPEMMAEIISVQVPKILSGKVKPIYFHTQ
Excerpt: (§1) The co-transfection assay provides a method for identifying functional agonists and partial agonists which mimic, or antagonists which inhibit, the effect of native hormones and quantifying their activity for responsive IR proteins. In this regard, the co-transfection assay mimics an in vivo system in the laboratory. Importantly, activity in the co-transfection assay correlates very well with known in vivo activity, such that the co-transfection assay functions as a qualitative and quantitative predictor of a tested compounds in vivo pharmacology. See, e.g., T. Berger et al. 41 J. Steroid Biochem. Molec.
(§2) In the co-transfection assay, a cloned cDNA for an IR (e.g., human PR, AR or GR) under the control of a constitutive promoter (e.g., the SV 40 promoter) is introduced by transfection (a procedure to induce cells to take up foreign genes) into a background cell substantially devoid of endogenous IRs. This introduced gene directs the recipient cells to make the IR protein of interest. A second gene is also introduced (co-transfected) into the same cells in conjunction with the IR gene. This second gene, comprising the cDNA for a reporter protein, such as firefly luciferase (LUC), controlled by an appropriate hormone responsive promoter containing a hormone response element (HRE). This reporter plasmid functions as a reporter for the transcription-modulating activity of the target IR. Thus, the reporter acts as a surrogate for the products (mRNA then protein) normally expressed by a gene under control of the target receptor and its native hormone.
(§3) The co-transfection assay can detect small molecule agonists or antagonists of target IRs. Exposing the transfected cells to an agonist ligand compound increases reporter activity in the transfected cells. This activity can be conveniently measured, e.g., by increasing luciferase production, which reflects compound-dependent, IR-mediated increases in reporter transcription. […] To detect antagonists, the co-transfection assay is carried out in the presence of a constant concentration of an agonist to the target IR (e.g., progesterone for PR) known to induce a defined reporter signal. Increasing concentrations of a suspected antagonist will decrease the reporter signal (e.g., luciferase production). The co-transfection assay is therefore useful to detect both agonists and antagonists of specific IRs. Furthermore, it determines not only whether a compound interacts with a particular IR, but whether this interaction mimics (agonizes) or blocks (antagonizes) the effects of the native regulatory molecules on target gene expression, as well as the specificity and strength of this interaction.
(§4) CV-1 cells (African green monkey kidney fibroblasts) were cultured in the presence of Dulbecco's Modified Eagle Medium (DMEM) supplemented with 10% charcoal resin-stripped fetal bovine serum then transferred to 96-well microtiter plates one day prior to transfection.
(§5) The reporter plasmid, MTV-LUC, contains the cDNA for firefly luciferase (LUC) under control of the mouse mammary tumor virus (MTV) long terminal repeat, a conditional promoter containing an androgen response element. See e.g., Berger et al. supra. In addition, pRS-β-Gal, coding for constitutive expression of E. coli β-galactosidase (β-Gal), was included as an internal control for evaluation of transfection efficiency and compound toxicity.
(§6) Six hours after transfection, media was removed and the cells were washed with phosphate-buffered saline (PBS). […] Three to four replicates were used for each sample. Transfections and subsequent procedures were performed on a Biomek 1000 automated laboratory work station.
(§7) After 40 hours, the cells were washed with PBS, lysed with a Triton X-100-based buffer and assayed for LUC and β-Gal activities using a luminometer or spectrophotometer, respectively. For each replicate, the normalized response (NR) was calculated as: LUC response/β-Gal rate • where β-Gal rate=β-Gal·1×10^−5/β-Gal incubation time.

human AR [2] = target: T1, human AR; assay: AR whole cell competitive binding assay (3H-DHT), transfected COS-1 cells; design: expressed in transfected cells; transient transfection with pRShAR
Method: AR Binding: For the whole cell binding assay, COS-1 cells in 96-well microtiter plates containing DMEM-10% FBS were transfected as described above with the following plasmid DNA: pRShAR (2 ng/well), pRS-β-Gal (50 ng/well) and pGEM (48 ng/well). Six hours after transfection, media was removed, the cells were washed with PBS and fresh media was added. The next day, the media was changed to DMEM-serum free to remove any endogenous ligand that might be complexed with the receptor in the cells.
Three replicates were used for each sample. […] The remaining media was removed, the cells were washed three times with PBS to remove unbound ligand and cells were lysed with a Triton X-100-based buffer.
For the saturation analyses, the difference between the total binding and the nonspecific binding, normalized by the β-Gal rate, was defined as specific binding. […] The Ki values were determined by application of the Cheng-Prusoff equation to the IC50 values, where: […]
After correcting for non-specific binding, IC50 values were determined. […] The IC50 value was determined graphically from a log-logit plot of the data. The Ki values were determined by application of the Cheng-Prusoff equation to the IC50 values, the labeled ligand concentration and the Kd of the labeled ligand.

human AR [3] = target: T1, human AR; assay: Co-transfection assay, AR antagonist activity in presence of DHT, CV-1 cells; type: cell-based; design: expressed in transfected cells; host or cells: CV-1 cells (African green monkey kidney fibroblasts), transient transfection with pRShAR; details: for AR Antagonist CV-1 Cells Efficacy (%): percent maximal inhibition, DHT at its EC50 concentration
Excerpt: as §1, §2, §3, §4, §5, §6, §7

[4] = AR Binding Ki (nM), COS-1 cells, 1 nM 3H-DHT, Cheng-Prusoff from IC50
[5] = AR Antagonist CV-1 Cells Potency (nM), CV-1 cells, antagonist potency or IC50, DHT at its EC50 concentration

Row | Compound | AR Agonist CV-1 Cells Efficacy (%) (human AR [1]) | Ki (human AR [2]; [4]) [nM] | IC50 (human AR [3]; [5]) [nM] | AR Antagonist CV-1 Cells Efficacy (%) (human AR [3]; CV-1 cells) | EC50 (human AR [1]) [nM] | Ki (human AR [2]; read-out: AR Binding Ki) [nM] | IC50 (human AR [3]) [nM]
1 | O=c1cc(C(F)(F)F)c2c3c(ccc2[nH]1)N(Cc1ccoc1)C1CCCC31 (racemic) [Compound 126, (±)-4c,5,6,7,7a(cis),8-Hexahydro-8-(3-furanylmethyl)-4-trifluoromethyl-cyclopentano[g]pyrrolo[3,2-f]quinolin-2(1H)-one] | 53% | 2.3 | > 10000 | na (na = not active (i.e. efficacy of <20 and potency of >10,000)) | – | – | –
2 | O=c1cc(C(F)(F)F)c2c3c(ccc2[nH]1)N(Cc1ccsc1)C1CCCC31 (racemic) [Compound 127, (±)-4c,5,6,7,7a(cis),8-Hexahydro-8-(3-thiophenemethyl)-4-trifluoromethyl-cyclopentano[g]pyrrolo[3,2-f]quinolin-2(1H)-one] | 66% | 6.3 | > 10000 | na (na = not active (i.e. efficacy of <20 and potency of >10,000)) | 25 | – | –
3 | O=c1cc(C(F)(F)F)c2c3c(ccc2[nH]1)N(CC(F)(F)Cl)C1CCCC31 (racemic) [Compound 129, (±)-4c,5,6,7,7a(cis),8-Hexahydro-8-(2,2,2-chlorodifluoroethyl)-4-trifluoromethylcyclopentano[g]pyrrolo[3,2-f]quinolin-2(1H)-one] | 79% | 3.2 | > 10000 | na (na = not active (i.e. efficacy of <20 and potency of >10,000)) | 1.6 | – | –
4 | O=c1cc(C(F)(F)F)c2c3c(ccc2[nH]1)N(CC(F)(F)F)C1CCCCC31 (racemic) [Compound 132, (±)-4c,5,6,7,8,8a(cis),9-Heptahydro-9-(2,2,2-trifluoroethyl)-4-trifluoro-methyl-9H-cyclohexano[g]pyrrolo[3,2-f]quinolin-2(1H)-one] | 70% | 21 | > 10000 | na (na = not active (i.e. efficacy of <20 and potency of >10,000)) | 4.8 | – | –
5 | CCC1C(C)c2c(ccc3[nH]c(=O)cc(C(F)(F)F)c23)N1CC(F)(F)F (racemic) [Compound 134, (±)-5,6-cis-Dihydro-6-ethyl-5-methyl-7-(2,2,2-trifluoroethyl)-4-trifluoromethyl-7H-pyrrolo[3,2-f]quinolin-2(1H)-one] | 70% | 6.8 | > 10000 | na (na = not active (i.e. efficacy of <20 and potency of >10,000)) | 4.2 | – | –
6 | CC1C(c2ccc(N(C)C)cc2)c2c(ccc3[nH]c(=O)cc(C(F)(F)F)c23)N1CC(F)(F)F (racemic) [Compound 137, (±)-5,6-cis-Dihydro-5-(4-dimethylaminophenyl)-6-methyl-7-(2,2,2-trifluoroethyl)-4-trifluoromethyl-7H-pyrrolo[3,2-f]quinolin-2(1H)-one] | 77% | – | – | na (na = not active (i.e. efficacy of <20 and potency of >10,000)) | 145 | 107 | > 10000
7 | O=c1cc(C(F)(F)F)c2c3c(ccc2[nH]1)N(CC(F)(F)F)CC3c1ccccc1 (racemic) [Compound 141, (±)-5,6-Dihydro-5-phenyl-7-(2,2,2-trifluoroethyl)-4-trifluoromethyl-7H-pyrrolo[3,2-f]quinolin-2(1H)-one] | 46% | 97 | 34 | 44% | 86 | – | –
8 | CCCC1C(CC)c2c(ccc3[nH]c(=O)cc(C(F)(F)F)c23)N1CC(F)(F)F (racemic) [Compound 146, (±)-5,6-Dihydro-5-ethyl-6-propyl-7-(2,2,2-trifluoroethyl)-4-trifluoromethyl-7H-pyrrolo[3,2-f]quinolin-2(1H)-one] | 38% | 75 | 1 | 66% | 49 | – | –
9 | CCC1C(C)c2c(ccc3[nH]c(=O)ccc23)N1CC(F)(F)F (racemic) [Compound 149, (±)-5,6-cis-Dihydro-5-methyl-6-ethyl-7-(2,2,2-trifluoroethyl)-7H-pyrrolo[3,2-f]quinolin-2(1H)-one] | na (na = not active (i.e. efficacy of <20 and potency of >10,000)) | – | – | 81% | > 10000 | 127 | 25
10 | CCC1CCOc2c1ccc1[nH]c(=O)cc(C)c21 (racemic) [Compound 215, (±)-7,8-Dihydro-8-ethyl-4-methyl-6H-pyrano[2,3-f]quinolin-2(1H)-one] | 28% | 47 | – | 77% | 2070 | – | 17
